Measurements taken from BindingDB's records for doi:10.1016/j.bmcl.2004.02.008 (Astrazeneca, 2004).

Target: Cyclin-dependent kinase 2/G1/S-specific cyclin-E1 (Homo sapiens, UniProt P24941)
Assay: CDK Assay
Conditions: pH 7; 22 °C
Experimental: The kinase activity was assayed using an in vitro scintillation proximity assay (SPA) for measuring incorporation of [gamma-33P] ATP into GST-Rb.

SMILES | IC50 [nM]
COCCN(C)S(=O)(=O)c1ccc(Nc2nccc(-c3cnc4cccnn34)n2)cc1 [4-[(4-{imidazo[1,2-a]pyridazin-3-yl}pyrimidin-2-yl)amino]-N-(2-methoxyethyl)-N-methylbenzene-1-sulfonamide] | 600
CNS(=O)(=O)c1ccc(Nc2nccc(-c3cnc4cccnn34)n2)cc1 [4-[(4-{imidazo[1,2-a]pyridazin-3-yl}pyrimidin-2-yl)amino]-N-methylbenzene-1-sulfonamide] | < 3
COCCNS(=O)(=O)c1ccc(Nc2ncc(Sc3ccccc3)c(-c3cnc4ccccn34)n2)cc1 [4-[(4-{imidazo[1,2-a]pyridin-3-yl}-5-(phenylsulfanyl)pyrimidin-2-yl)amino]-N-(2-methoxyethyl)benzene-1-sulfonamide] | > 10000
c1ccc(Nc2nccc(-c3cnc4cccnn34)n2)cc1 [4-{imidazo[1,2-a]pyridazin-3-yl}-N-phenylpyrimidin-2-amine] | 1000
CN(C)CCCNS(=O)(=O)c1ccc(Nc2nccc(-c3cnc4cccnn34)n2)cc1 [N-[3-(dimethylamino)propyl]-4-[(4-{imidazo[1,2-a]pyridazin-3-yl}pyrimidin-2-yl)amino]benzene-1-sulfonamide] | < 3
NS(=O)(=O)c1ccc(Nc2nccc(-c3cnc4cccnn34)n2)cc1 [4-[(4-{imidazo[1,2-a]pyridazin-3-yl}pyrimidin-2-yl)amino]benzene-1-sulfonamide] | < 3

Other lines, results leading:

IC50 [nM] | SMILES
< 3 | COCCNS(=O)(=O)c1ccc(Nc2nccc(-c3cnc4ccc(C#N)cn34)n2)cc1 [4-[(4-{6-cyanoimidazo[1,2-a]pyridin-3-yl}pyrimidin-2-yl)amino]-N-(2-methoxyethyl)benzene-1-sulfonamide]
8 | CN(C)CCNS(=O)(=O)c1ccc(Nc2nccc(-c3cnc4cccnn34)n2)cc1 [N-[2-(dimethylamino)ethyl]-4-[(4-{imidazo[1,2-a]pyridazin-3-yl}pyrimidin-2-yl)amino]benzene-1-sulfonamide]
< 3 | COCCNS(=O)(=O)c1ccc(Nc2nccc(-c3cnc4ccc(Br)cn34)n2)cc1 [4-[(4-{6-bromoimidazo[1,2-a]pyridin-3-yl}pyrimidin-2-yl)amino]-N-(2-methoxyethyl)benzene-1-sulfonamide]
< 3 | CCSc1ccc2ncc(-c3ccnc(Nc4ccc(S(=O)(=O)NCCOC)cc4)n3)n2c1 [4-({4-[6-(ethylsulfanyl)imidazo[1,2-a]pyridin-3-yl]pyrimidin-2-yl}amino)-N-(2-methoxyethyl)benzene-1-sulfonamide]
3 | COCCNS(=O)(=O)c1ccc(Nc2nccc(-c3c(C)nc4cccnn34)n2)cc1 [N-(2-methoxyethyl)-4-[(4-{2-methylimidazo[1,2-a]pyridazin-3-yl}pyrimidin-2-yl)amino]benzene-1-sulfonamide]
< 3 | COCCNS(=O)(=O)c1ccc(Nc2nccc(-c3cnc4cccnn34)n2)cc1 [4-[(4-{imidazo[1,2-a]pyridazin-3-yl}pyrimidin-2-yl)amino]-N-(2-methoxyethyl)benzene-1-sulfonamide]
600 | COCCNS(=O)(=O)c1ccc(Nc2nccc(-c3cnc4ccc(OC)nn34)n2)cc1 [N-(2-methoxyethyl)-4-[(4-{6-methoxyimidazo[1,2-a]pyridazin-3-yl}pyrimidin-2-yl)amino]benzene-1-sulfonamide]
